This note sets out measurements from patent publication US20230165252A1, “ACTIVE COMPOUND COMBINATIONS” (Bayer Aktiengesellschaft, priority 2020, published 2023).

Common to all, as to assay type: cell-based
Assay [1] concerns Colletotrichum lindemuthianum. As to the kind of experiment: in vitro-Test with Colletotrichum lindemuthianum (microtiter growth inhibition). How it is done: (§1) The degree of efficacy expressed in % is denoted: 0% means an efficacy, which corresponds to that of the control, while an efficacy of 100% means that no disease is observed.
(§2) If the actual fungicidal activity exceeds the calculated value, then the activity of the combination is super-additive, i.e. a synergistic effect exists. In this case, the efficacy, which was actually observed, must be greater than the value for the expected efficacy (E), that was calculated from the abovementioned formula.
(§3) Example: In Vitro-Test with Fungal Microorganisms
(§4) Wells of 96-well microtiter plates are filled with 10 μl of a preparation of test compound or compound combination in methanol+emulsifier alkylaryl-polyglycol-ether. Thereafter, the solvent is evaporated in a hood. At the next step, 100 μl of liquid potato dextrose medium is given into each well, that has been amended with an appropriate concentration of spores or mycelium suspension of the test fungus.
(§5) With the aid of a photometer, the extinction in all wells is measured at the wavelength of 620 nm.
(§6) The microtiter plates are incubated at 20° C. and 85% relative humidity. The inhibition of growth is determined again photometrically 3-5 days after the application. Efficacy is calculated in relation to the untreated control, 0% efficacy means fungal growth as high as in untreated control while 100% efficacy means no fungal growth is measured.

Assay [2] has as its system Botrytis cinerea. As to the kind of experiment: in vitro-Test with Botrytis cinerea (microtiter growth inhibition). Conditions: for inhibition of growth at 0.04 ppm: single active at 0.04 ppm; for inhibition of growth at 0.2 ppm: single active at 0.2 ppm; for Efficacy: applied alone. The essentials:
(§7)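 Test compound or combination in methanol plus alkylaryl-polyglycol-ether emulsifier was dried into microtiter wells, then overlaid with liquid potato dextrose medium seeded with spores or mycelium. Plates were held at 20° C. and 85% relative humidity, and growth was read photometrically at 620 nm after 3-5 days. Efficacy is relative to untreated control.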

Assay [3] has as its system Parastagonospora nodorum. As to the kind of experiment: in vitro-Test with Parastagonospora nodorum (microtiter growth inhibition). The protocol: as §1, §2, §3, §4, §5, §6
For assay [4], the system named is Ustilago segetum var. avenae. Description: in vitro-Test with Ustilago segetum var. avenae (microtiter growth inhibition). The following applies: read-out: Efficacy %. The essentials: as §7
The subject of assay [5] is Fusarium culmorum. Description: in vitro-Test with Fusarium culmorum (microtiter growth inhibition). The following applies: Fusarium culmorum, read-out: Efficacy. How it is done: as §1, §2, §3, §4, §5, §6
Assay [6] deals with Cercospora beticola. As to the kind of experiment: in vitro-Test with Cercospora beticola (microtiter growth inhibition). The following applies: Cercospora beticola. The essentials:
as §7

Assay [7] relates to Diaporthe citri. As to the kind of experiment: in vitro-Test with Diaporthe citri (microtiter growth inhibition). The following applies: Diaporthe citri, read-out: Efficacy. An outline of the steps: as §7
The subject of assay [8] is Cordana musae. As to the kind of experiment: in vitro-Test with Cordana musae (microtiter growth inhibition). Conditions: Neocordana musae. The essentials: as §7
For assay [9], the system named is Alternaria alternate. As to the kind of experiment: in vitro-Test with Alternaria alternate (microtiter growth inhibition). The essentials: as §7
[10] abbreviates: Botrytis cinerea, read-out: Efficacy %.
Where [11] appears, read: Colletotrichum lindemuthianum, read-out: Efficacy %.
[12] abbreviates: Parastagonospora nodorum, read-out: Efficacy %.

Like-named read-outs stand apart in the source and are kept apart here.

Take `OC(Cc1ccccc1Cl)(Cn1nc[nH]c1=S)C1(Cl)CC1` (centres unmarked) [(1.018) prothioconazole]: the inhibition of growth at 0.2 ppm was found to be 73% in assay [1] (Colletotrichum lindemuthianum, applied alone at 0.2 ppm, read-out: Efficacy %); 100% in assay [2] (setting [10]); 99% in assay [3] (Parastagonospora nodorum, compound alone, 0.2 ppm, read-out: Efficacy %). The inhibition of growth at 0.04 ppm in [2] (setting [10]) was found to be 63%; in assay [3] (Parastagonospora nodorum, compound alone, 0.04 ppm, read-out: Efficacy %), 91%. Also, the inhibition of growth at 0.008 ppm in assay [3] (Parastagonospora nodorum, compound alone, 0.008 ppm, read-out: Efficacy %) worked out at 28%. Further, in assay [3] (Parastagonospora nodorum, compound alone, 1.0 ppm, read-out: Efficacy %), the inhibition of growth at 1 ppm turned out to be 100%. In assay [3] (compound alone, 0.2 ppm), the Efficacy % turned out to be 99%.

As for `N#Cc1ccccc1NC(=O)c1snc(Cl)c1Cl` [(6.002) isotianil], the Efficacy % in assay [1] (applied alone at 0.8 ppm) turned out to be 7%; in assay [1] (applied alone at 4 ppm), 19%; in assay [1] (applied alone at 20 ppm) it was 0%; in [1] (applied alone at 100 ppm) it was 17%; in [2] (single active at 4 ppm), 0%; in assay [2] (single active at 20 ppm), 0%. Further, the Efficacy % in [2] (single active at 100 ppm) was determined as 0%.

Consider `N#Cc1c[nH]cc1-c1cccc2c1OC(F)(F)O2` [(13.001) fludioxonil], for which, in assay [1] (setting [11]), the inhibition of growth at 0.04 ppm was 8%, the inhibition of growth at 0.2 ppm was determined as 68%, the inhibition of growth at 1 ppm amounted to 81% and the inhibition of growth at 5 ppm is 44%. For the same compound, in assay [1] (applied alone at 0.2 ppm), the Efficacy % came out at 60%. In assay [3] (setting [12]), the inhibition of growth at 1 ppm came out at 34% and the inhibition of growth at 5 ppm was found to be 75%. Moreover, the Efficacy % in assay [3] (compound alone, 0.04 ppm) is on record as 0%. For the same compound, the Efficacy % in assay [3] (compound alone, 0.2 ppm) was 0%.

As for `CCO[PH](=O)[O-].CCO[PH](=O)[O-].CCO[PH](=O)[O-].[Al+3]` [(15.012) fosetylaluminium], the Efficacy % in assay [1] (applied alone at 4 ppm) is on record as 0%; in assay [1] (applied alone at 20 ppm), 22%; in [1] (applied alone at 100 ppm) it was 70%.

For `CCN(C)C=Nc1cc(C)c(Oc2ccccc2F)cc1Cl` [Compound 15.064, N′-[2-chloro-4-(2-fluorophenoxy)-5-methylphenyl]-N-ethyl-N-methylimidoformamide], the inhibition of growth at 0.4 ppm in [4] (compound alone) was determined as 0%; in assay [4] (single compound), 2%; in assay [5] it was 0%; in assay [6] (alone, 0.4 ppm, read-out: Efficacy %), 0%; in assay [7] (applied alone, 0.4 ppm), 2%; in assay [8] (single substance, 0.4 ppm, read-out: Efficacy), 18%. For the same compound, the inhibition of growth at 2 ppm in assay [4] (compound alone) was found to be 41%; in assay [4] (single compound), 68%; in [5], 1%; in assay [7] (applied alone, 2 ppm), 5%; in assay [8] (single substance, 2 ppm, read-out: Efficacy), 14%. Besides, the inhibition of growth at 10 ppm amounted to 100% in [4] (compound alone); 100% in assay [4] (single compound); 9% in [5]; 14% in assay [6] (alone, 10 ppm, read-out: Efficacy %); 5% in assay [8] (single substance, 10 ppm, read-out: Efficacy). Moreover, the inhibition of growth at 0.08 ppm was determined as 1% in assay [4] (single compound, 0.08 ppm); 0% in assay [6] (alone, 0.08 ppm, read-out: Efficacy %); 11% in [7] (applied alone, 0.080 ppm); 0% in assay [8] (single substance, 0.080 ppm, read-out: Efficacy). For the same compound, the inhibition of growth at 0.04 ppm in assay [2] (setting [10]) was found to be 0%. The inhibition of growth at 0.2 ppm in assay [2] (setting [10]) was determined as 100%. Further, the inhibition of growth at 1 ppm in assay [2] (Botrytis cinerea, single active at 1.0 ppm, read-out: Efficacy %) is 100%. In addition, in [2] (Botrytis cinerea, single active at 5.0 ppm, read-out: Efficacy %), the inhibition of growth at 5 ppm was found to be 100%. Moreover, the Efficacy in assay [2] (0.080 ppm) is reported as 0%; in assay [2] (0.4 ppm), 0%; in assay [2] (2 ppm), 31%.

As to `N#Cc1c[nH]cc1-c1cccc2c1OC(F)(F)O2` [fludioxonil], the inhibition of growth at 0.04 ppm stood at 10% in [4]; 0% in [5]; 12% in [7]; 0% in assay [9] (Alternaria, read-out: Efficacy %, 0.04 ppm, alone); 0% in assay [9] (Alternaria, read-out: Efficacy, applied alone, 0.04 ppm). For the same compound, the inhibition of growth at 0.2 ppm in assay [4] came to 60%; in [5] (0.2 ppm), 0%; in assay [7] it was 0%; in assay [9] (Alternaria, read-out: Efficacy %, 0.2 ppm, alone) it was 0%; in assay [9] (Alternaria, read-out: Efficacy, applied alone, 0.2 ppm), 0%. The inhibition of growth at 1 ppm in [4] turned out to be 100%; in assay [5], 91%; in assay [7], 45%; in [8] (read-out: Efficacy, single substance, 1.0 ppm), 20%; in assay [9] (Alternaria, read-out: Efficacy %, 1.0 ppm, alone) it was 87%; in assay [9] (Alternaria, read-out: Efficacy, applied alone, 1.0 ppm) it was 96%. The inhibition of growth at 5 ppm in assay [4] was found to be 100%; in assay [5] (5.0 ppm), 100%; in [6] (read-out: Efficacy %, alone, 5.0 ppm), 95%; in assay [7] it was 10%; in assay [8] (read-out: Efficacy, single substance, 5.0 ppm) it was 44%; in assay [9] (Alternaria, read-out: Efficacy %, 5.0 ppm, alone) it was 100%. Further, in assay [9] (Alternaria, read-out: Efficacy, applied alone, 5.0 ppm), the inhibition of growth at 5 ppm came out at 100%. In addition, the inhibition of growth at 0.08 ppm in assay [5] (0.08 ppm) stood at 1%. In assay [5], the inhibition of growth at 0.4 ppm came out at 1%. Also, the inhibition of growth at 2 ppm in assay [5] was 2%. For the same compound, in [5], the inhibition of growth at 10 ppm amounted to 11%. Besides, the Efficacy in [2] (0.04 ppm) was 12%; in assay [2] (0.2 ppm), 99%; in [2] (1.0 ppm), 100%; in [2] (5.0 ppm) it was 100%.

As to `CON=C(C(=O)OC)c1ccccc1CON=C(C)c1cccc(C(F)(F)F)c1` [trifloxystrobin], the inhibition of growth at 0.008 ppm is 16% in assay [4] (single compound, 0.008 ppm); 0% in assay [5] (0.008 ppm); 98% in [6] (alone, 0.008 ppm, read-out: Efficacy %); 82% in [7] (applied alone, 0.008 ppm); 29% in assay [8] (single substance, 0.008 ppm, read-out: Efficacy); 56% in [9] (Alternaria, 0.008 ppm, alone, read-out: Efficacy %). In addition, the inhibition of growth at 0.04 ppm in [4] (single compound, 0.04 ppm) was 40%; in assay [5] it was 0%; in [7] (applied alone, 0.04 ppm), 94%; in assay [9] (Alternaria, 0.04 ppm, alone, read-out: Efficacy %), 84%; in assay [9] (Alternaria, applied alone, 0.04 ppm, read-out: Efficacy), 82%. For the same compound, the inhibition of growth at 0.2 ppm in assay [4] (single compound, 0.2 ppm) was 53%; in [6] (alone, 0.2 ppm, read-out: Efficacy %), 95%; in assay [7] (applied alone, 0.2 ppm), 97%; in assay [8] (single substance, 0.2 ppm, read-out: Efficacy) it was 66%; in assay [9] (Alternaria, 0.2 ppm, alone, read-out: Efficacy %), 90%; in assay [9] (Alternaria, applied alone, 0.2 ppm, read-out: Efficacy) it was 87%. The inhibition of growth at 1 ppm in [5] was 11%; in assay [7] (applied alone, 1.0 ppm), 98%; in [9] (Alternaria, 1.0 ppm, alone, read-out: Efficacy %) it was 98%. In addition, the Efficacy in [3] (0.008 ppm) is given as 38%; in assay [3] (0.04 ppm), 63%; in assay [3] (0.2 ppm), 78%; in assay [3] (1.0 ppm) it was 79%; in assay [9] (applied alone, 0.008 ppm), 51%.
